Our source for the IC50 values is patent US11787762B2, “Tetralin and tetrahydroquinoline compounds as inhibitors of HIF-2alpha” (ARCUS BIOSCIENCES, INC., priority 2020, dated 2023).

A value given as a limit tells only on which side of the number the result lay.

Experiment [1] has as its target T1, Histidine tagged HIF-2α protein containing PAS-B domain (240-350) (Homo sapiens, UniProt Q99814).
T1 construct: HIF-2α protein containing PAS-B domain (240-350); made in house
Put plainly: HIF-2α Scintillation Proximity Assay (SPA) binding assay. As to conditions: Table 1; 50 nM HIF-2α protein, 25 nM 3H-tracer. Summed up: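 His-tagged HIF-2α PAS-B (240-350), 50 nM final, preincubated with compound 1 h at room temperature in 25 mM Tris-HCl pH 7.4, 150 mM NaCl, 0.15% BSA, 0.001% Tween 20, 2% DMSO. Copper-chelate SPA beads (3 ug/well, 45 min) and 25 nM tritiated N-(3-chlorophenyl)-4-nitro-2,1,3-benzoxadiazol-5-amine tracer followed; IC50 from four-parameter fits.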

Experiment [2] addresses T2, HIF-2α (Homo sapiens, UniProt Q99814).
T2 construct: host or cells: 786-O cells stably transduced with Cignal Lenti HIF Luc Reporter (only the reporter was introduced, not HIF-2α)
Put plainly: HIF-2α luciferase reporter assay in HIF-Luc-786-O cells. The conditions noted are these: Table 1, 20 hours incubation. It counts as cell-based. In outline: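 786-O cells stably carrying a HIF-responsive luciferase reporter, 20,000/well in OptiMem with 1% DMSO, exposed to compound up to 50 uM for 20 h at 37 °C. ONE-Glo luminescence normalised to DMSO and no-cell controls; IC50 by four-parameter fit.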

T1 sequence (Q99814 240-350): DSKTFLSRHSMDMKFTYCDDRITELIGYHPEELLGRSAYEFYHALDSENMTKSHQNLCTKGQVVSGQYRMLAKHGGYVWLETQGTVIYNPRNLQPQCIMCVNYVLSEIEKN
T2 sequence (Q99814 whole entry): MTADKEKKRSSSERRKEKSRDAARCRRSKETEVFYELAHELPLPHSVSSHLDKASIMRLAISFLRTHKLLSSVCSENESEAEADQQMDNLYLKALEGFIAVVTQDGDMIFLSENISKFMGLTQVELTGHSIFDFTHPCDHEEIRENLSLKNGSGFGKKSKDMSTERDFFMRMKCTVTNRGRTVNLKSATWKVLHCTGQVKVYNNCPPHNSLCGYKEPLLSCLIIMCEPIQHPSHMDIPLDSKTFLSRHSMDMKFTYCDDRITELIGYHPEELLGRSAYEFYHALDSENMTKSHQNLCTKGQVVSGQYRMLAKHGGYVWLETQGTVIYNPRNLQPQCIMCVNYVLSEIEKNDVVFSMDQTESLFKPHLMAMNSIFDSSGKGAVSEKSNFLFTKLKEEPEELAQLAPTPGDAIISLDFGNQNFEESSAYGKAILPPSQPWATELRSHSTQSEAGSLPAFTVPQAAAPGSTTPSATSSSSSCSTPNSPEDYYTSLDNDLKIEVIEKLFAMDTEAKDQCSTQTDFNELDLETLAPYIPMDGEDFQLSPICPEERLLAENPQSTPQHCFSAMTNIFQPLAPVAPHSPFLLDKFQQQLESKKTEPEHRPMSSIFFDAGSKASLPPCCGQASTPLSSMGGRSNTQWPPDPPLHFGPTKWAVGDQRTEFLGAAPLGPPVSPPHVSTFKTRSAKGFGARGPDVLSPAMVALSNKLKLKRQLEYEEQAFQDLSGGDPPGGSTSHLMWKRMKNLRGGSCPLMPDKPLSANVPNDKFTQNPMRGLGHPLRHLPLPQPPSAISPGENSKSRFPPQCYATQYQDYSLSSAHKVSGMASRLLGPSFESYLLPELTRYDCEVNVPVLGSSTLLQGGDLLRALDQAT

For `N#Cc1cc(F)cc2c1N(c1ccc(S(=O)(=O)C(F)(F)F)c3ncccc13)CCC2` [Example 40], the results for the IC50 in experiment [1] and in experiment [2] were 100 to 1000 nM and greater than 1000 nM, respectively.
Regarding `CS(=O)(=O)c1ccc(N2CCCc3cc(F)cc(C#N)c32)c2c1[C@H](O)[C@H](F)C2` [Example 41], the IC50 in experiment [1] is 100 to 1000 nM; in experiment [2], greater than 1000 nM.
Turning to `N#Cc1cc(F)cc2c1N(c1ccc(C(F)(F)F)c(F)c1CO)CCC2` [Example 42], the half-inhibitory concentration (IC50) was 100 to 1000 nM in experiment [1] and greater than 1000 nM in experiment [2].
The matching figures for `CS(=O)(=O)c1ccc(N2CCCc3cc(F)cc(F)c32)c(Cl)c1C#N` [Example 43]: 100 to 1000 nM and greater than 1000 nM.
For `N#Cc1cc(F)cc2c1N(c1ccc(C(F)(F)F)c(F)c1CCO)CCC2` [Example 44] the same measures were greater than 1000 nM and greater than 1000 nM.
For `CC[C@@H]1CCN(c2ccc(S(=O)(=O)C(F)(F)F)c3c2C[C@@H](F)[C@H]3O)c2c(F)cc(F)cc21` [Example 45] the same measures were 100 to 1000 nM and greater than 1000 nM.
As to `Cc1c(F)ccc2c1N(c1ccc(S(=O)(=O)C(F)(F)F)cc1[N+](=O)[O-])CCC2` [Example 46], the IC50 in experiment [1] and in experiment [2] was greater than 1000 nM in each case.
With `CS(=O)(=O)c1ccc(N2CCCc3cc(F)cc(Cl)c32)c2c1[C@H](O)[C@H](F)C2` [Example 47], the 50% inhibitory concentration (IC50) in experiment [1] is 100 to 1000 nM; in experiment [2], greater than 1000 nM.
For the compound `O=S(=O)(c1ccc(N2CCCc3cc(F)cc(F)c32)c2c1C(F)C(F)(F)C2)C(F)(F)F` (centres unmarked) [Example 48], the IC50 in experiment [1] was 100 to 1000 nM; in experiment [2] it was greater than 1000 nM.
On to `O=S(=O)(c1ccc(N2CCCc3cc(F)cc(F)c32)c2c1C(F)CC2)C(F)(F)F` (centres unmarked) [Example 49], for which the IC50 is 100 to 1000 nM in experiment [1] and greater than 1000 nM in experiment [2].
The matching figures for `O=S(=O)(c1ccc(N2C[C@H](O)Cc3cc(F)cc(F)c32)c2c1[C@H](O)[C@H](F)C2)C(F)(F)F` [Example 50]: greater than 1000 nM and greater than 1000 nM.
As for `O=S1(=O)c2ccc(N3CCCc4cc(F)cc(F)c43)c(Cl)c2C(O)C1(F)F` (centres unmarked) [Example 52], the IC50 in experiment [1] is 100 to 1000 nM; in experiment [2] it was greater than 1000 nM.
Take `CS(=O)(=O)c1ccc(N2CCCc3cc(F)cc(F)c32)c(C(F)F)c1C#N` [Example 53]: the IC50 in experiment [1] and in experiment [2] was greater than 1000 nM each time.
For the compound `O=S(=O)(c1ccc(N2CCCc3cc(F)cc(F)c32)c2c1[C@H](O)[C@@H](F)C2)C(F)(F)F` [Example 54], the IC50 in experiment [1] and in experiment [2] was greater than 1000 nM throughout.
Consider `CC(C)(O)c1cc(N2CCCc3cc(F)cc(F)c32)ccc1S(C)(=O)=O` [Example 55], for which the 50% inhibitory concentration (IC50) in experiment [1] and in experiment [2] was greater than 1000 nM throughout.
Regarding `O=S1(=O)c2ccc(N3CCCc4cc(F)cc(F)c43)c(Cl)c2C(F)C1(F)F` (centres unmarked) [Example 56], the half-inhibitory concentration (IC50) in experiment [1] is 100 to 1000 nM; in experiment [2], greater than 1000 nM.
With `O=[N+]([O-])c1cc(S(=O)(=O)C(F)(F)F)ccc1N1CCCc2ccc(F)c(F)c21` [Example 57], the 50% inhibitory concentration (IC50) in experiment [1] and in experiment [2] was greater than 1000 nM throughout.
As to `O=[N+]([O-])c1cc(S(=O)(=O)C(F)(F)F)ccc1N1CCCc2cc(Cl)cc(F)c21` [Example 58], the IC50 in experiment [1] and in experiment [2] was greater than 1000 nM in each case.
On to `CC(O)(c1ccc(N2CCCc3cc(F)cc(C#N)c32)c([N+](=O)[O-])c1)C(F)(F)F` (centres unmarked) [Example 59], for which the IC50 in experiment [1] and in experiment [2] was greater than 1000 nM in each case.
Regarding `COc1ccc2c(c1)N(c1ccc(S(=O)(=O)C(F)(F)F)cc1[N+](=O)[O-])CCC2` [Example 60], the IC50 in experiment [1] and in experiment [2] was greater than 1000 nM each time.
Take `N#Cc1cc(F)cc2c1N(c1ccc(C(F)(F)F)c(F)c1C(O)C(F)(F)F)CCC2` (centres unmarked) [Example 61]: the IC50 in experiment [1] and in experiment [2] was greater than 1000 nM in each case.
For the compound `O=[N+]([O-])c1cc(S(=O)(=O)C(F)(F)F)ccc1N1CCCc2cc(F)ccc21` [Example 62], the IC50 in experiment [1] and in experiment [2] was greater than 1000 nM each time.
On to `OCc1cc(N2CCCc3cc(F)cc(F)c32)ccc1C(F)(F)F` [Example 63], for which the IC50 in experiment [1] and in experiment [2] was greater than 1000 nM in each case.
Turning to `O=[N+]([O-])c1cc(S(=O)(=O)C(F)(F)F)ccc1N1CCCc2c(F)cc(F)cc21` [Example 64], the IC50 in experiment [1] and in experiment [2] was greater than 1000 nM throughout.
`N#Cc1ccc2c(c1)N(c1ccc(S(=O)(=O)C(F)(F)F)cc1[N+](=O)[O-])CCC2` [Example 65]: the concentration for half-maximal inhibition (IC50) in experiment [1] and in experiment [2] was greater than 1000 nM in each case.
Regarding `O=S(=O)(c1ccc(N2C[C@@H](O)Cc3cc(F)cc(F)c32)c2c1[C@H](O)[C@H](F)C2)C(F)(F)F` [Example 66], the half-maximal inhibitory concentration (IC50) in experiment [1] and in experiment [2] was greater than 1000 nM throughout.
Turning to `O=Cc1c(S(=O)(=O)C(F)(F)F)ccc(N2CCCc3cc(F)cc(F)c32)c1Cl` [Example 68], the IC50 in experiment [1] and in experiment [2] was greater than 1000 nM throughout.
Turning to `O=Cc1c(S(=O)(=O)C(F)(F)F)ccc(N2CCCc3cc(F)cc(F)c32)c1Cl` [Example 69], the 50% inhibitory concentration (IC50) in experiment [1] is 100 to 1000 nM; in experiment [2], greater than 1000 nM.
The matching figures for `O=[N+]([O-])c1cc(C(O)(C(F)(F)F)C(F)(F)F)ccc1N1CCCc2cc(F)cc(F)c21` [Example 70]: greater than 1000 nM and greater than 1000 nM.
Take `N#Cc1c(Cl)ccc(N2CCCc3cc(F)cc(F)c32)c1C(F)F` [Example 71]: the IC50 in experiment [1] and in experiment [2] was greater than 1000 nM in each case.
For the compound `N#Cc1c(S(N)(=O)=O)ccc(N2CCCc3cc(F)cc(F)c32)c1C(F)F` [Example 72], the IC50 in experiment [1] and in experiment [2] was greater than 1000 nM throughout.
Consider `O=[N+]([O-])c1cc(S(=O)(=O)C(F)(F)F)ccc1N1CCOc2cc(F)cc(F)c21` [Example 73], for which the IC50 in experiment [1] and in experiment [2] was greater than 1000 nM in each case.
For `Cc1ccc2c(c1)N(c1ccc(S(=O)(=O)C(F)(F)F)cc1[N+](=O)[O-])CCC2` [Example 74], the 50% inhibitory concentration (IC50) in experiment [1] and in experiment [2] was greater than 1000 nM in each case.
Turning to `N#Cc1c(S(N)(=O)=O)ccc(N2CCCc3cc(F)cc(F)c32)c1Cl` [Example 75], the 50% inhibitory concentration (IC50) in experiment [1] and in experiment [2] was greater than 1000 nM throughout.
For `O=S(=O)(c1ccc(N2CCCc3cc(F)cc(F)c32)cc1CO)C(F)(F)F` [Example 76], the IC50 in experiment [1] and in experiment [2] was greater than 1000 nM each time.
As for `COC(=O)c1cc(N2CCCc3cc(F)cc(F)c32)ccc1S(=O)(=O)C(F)(F)F` [Example 77], the concentration for half-maximal inhibition (IC50) in experiment [1] and in experiment [2] was greater than 1000 nM each time.
As for `O=S(=O)(c1ccc(N2CCCc3cc(F)cc(F)c32)c2c1C(O)CC2)C(F)(F)F` (centres unmarked) [Example 78], the IC50 in experiment [1] and in experiment [2] was greater than 1000 nM throughout.
Consider `O=S(=O)(c1ccc(N2CCCc3cc(F)cc(F)c32)c(Cl)c1C(O)C(F)(F)F)C(F)(F)F` (centres unmarked) [Example 79], for which the IC50 in experiment [1] and in experiment [2] was greater than 1000 nM each time.
Turning to `N#Cc1cc(S(=O)(=O)C(F)(F)F)ccc1N1CCCc2cc(F)cc(F)c21` [Example 80], the IC50 in experiment [1] and in experiment [2] was greater than 1000 nM throughout.
As to `O=S(=O)(c1ccc(N2CCCc3cc(F)cc(F)c32)c2cn[nH]c12)C(F)(F)F` [Example 81], the IC50 in experiment [1] and in experiment [2] was greater than 1000 nM in each case.
Regarding `O=S(=O)(c1ccc(N2CCCc3cc(F)cc(F)c32)c(Cl)c1CO)C(F)(F)F` [Example 83], the IC50 in experiment [1] and in experiment [2] was greater than 1000 nM each time.
For `O=[N+]([O-])c1cc(C(O)C(F)(F)F)ccc1N1CCCc2cc(F)cc(F)c21` (centres unmarked) [Example 84], the IC50 in experiment [1] and in experiment [2] was greater than 1000 nM each time.
Regarding `COC(=O)c1c(S(=O)(=O)C(F)(F)F)ccc(N2CCCc3cc(F)cc(F)c32)c1Cl` [Example 85], the IC50 in experiment [1] and in experiment [2] was greater than 1000 nM in each case.
Take `N#Cc1cc(C(F)(F)F)ncc1N1CCCc2cc(F)cc(F)c21` [Example 86]: the IC50 in experiment [1] and in experiment [2] was greater than 1000 nM throughout.
As to `CC(O)(c1ccc(N2CCCc3cc(F)cc(F)c32)c([N+](=O)[O-])c1)C(F)(F)F` (centres unmarked) [Example 87], the half-maximal inhibitory concentration (IC50) in experiment [1] and in experiment [2] was greater than 1000 nM in each case.
For `O=S(=O)(c1ccc(C2CCCc3cc(F)cc(F)c32)c2c1[C@H](O)[C@H](F)C2)C(F)(F)F` (some centres unmarked) [Example 89], the IC50 in experiment [1] and in experiment [2] was less than 100 nM throughout.
Take `N#Cc1cc(F)cc2c1[C@@H](c1ccc(S(=O)(=O)C(F)(F)F)c3c1CC[C@H]3O)CCC2` [Example 90]: the IC50 in experiment [1] and in experiment [2] was less than 100 nM each time.
Take `N#Cc1cc(F)cc2c1[C@@H](c1ccc(C(F)(F)F)c3c1OC(F)(F)[C@H]3O)CCC2` [Example 91]: the IC50 in experiment [1] and in experiment [2] was less than 100 nM in each case.
`CS(=O)(=O)c1ccc([C@H]2CCCc3cc(F)cc(F)c32)c2c1[C@H](O)C(F)(F)C2` [Example 93]: the IC50 in experiment [1] was less than 100 nM; in experiment [2] it was 100 to 1000 nM.
For `CS(=O)(=O)c1ccc([C@H]2CCCc3cc(F)cc(C#N)c32)c2c1[C@H](O)[C@@H](F)CC2` [Example 94] the same measures were 100 to 1000 nM and 100 to 1000 nM.
In the case of `CS(=O)(=O)c1ccc([C@H]2CCCc3cccc(C#N)c32)c2c1[C@H](O)[C@H](F)C2` [Example 97], the IC50 in experiment [1] and in experiment [2] was 100 to 1000 nM throughout.
Regarding `CS(=O)(=O)c1ccc([C@H]2CCCc3cc(F)cc(C#N)c32)c2c1[C@H](O)[C@H](F)CC2` [Example 98], the IC50 in experiment [1] and in experiment [2] was 100 to 1000 nM each time.
